Test system: apoptosome
Assay: Co-immunoprecipitation of apoptosome proteins with Apaf-1 in P5 cells
Format: cell-based, human
Conditions: carcinoma cells (P5), cisplatin, 24 h; Fig. 5b
Procedure: • (a) P693 and CEM cells were treated with cisplatin (2 µg/ml) in the absence or presence of DEX (1 µM) as indicated. 24 and 48 h following treatment cells were lysed and caspase-9 activity was determined using a fluorescent caspase-9 assay and spectroscopy. • (b) P5 and CEM cells were treated as described above. 24 h after stimulation Apaf-1 was immunoprecipitated from the cell extracts using a […]. Aliquotes of the precipitates were separated by three different gels and analysed by Western blotting using rabbit polyclonal Apaf-1, mAb cytochrome c or caspase-9 antibodies. The antibody heavy chain band (IgGH) ensures equal conditions. […]
• (A) Cell culture. […] The mice were given 0.28 mg/L DEX in drinking water, and the amount of water consumed was monitored. […] The tumour volumes were measured using callipers, and calculated using, as an approximation, the formula for volume of a hemi-ellipsoid: π(width^2 x length)/6. […] Early apoptotic changes were identified by staining of cells with fluoresceinthiocyanate (FITC)-conjugated annexin V and propidium iodide (Becton Dickinson, Heidelberg, Germany) and analysed by flow cytometry (FACScan, Becton Dickinson) as described (Herr et al., EMBO J. 16 (1997), 6200-6208) • (E) Immunohistochemistry. […] Bound antibodies were detected by FITC conjugated anti-mouse or anti-rabbit IgG (Molecular Probes Europe, Leiden, The Netherlands). […]

N.N.[Cl][Pt][Cl] [cisplatin]
amounts of immunoprecipitated apoptosome members (APAF-1, caspase-9, cytochrome c): strong induction in the amounts of APAF-1, caspase-9 and cytochrome c

— EP1283052A1, “Pharmaceutical composition containing caspase-8 and /or caspase-9 useful for overcoming glucocorticoid- and cancer therapy-induced apoptosis of tumours” (Deutsches Krebsforschungszentrum Stiftung des öffentlichen …, priority 2001, dated 2003)
